In US10294202B2, “Pyrrolidinones as herbicides” (FMC Corporation, priority 2013, dated 2019):

Tests used:
kochia = assay: Test A pre-/postemergence herbicide test; format: in vivo, Kochia scoparia; settings: for Plant response rating, Kochia: 125 g ai/ha
Method in brief: (§1)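 Visual injury ratings, 0 = no effect, 100 = complete control, taken ~10 days after treatment against untreated greenhouse controls. Preemergence: directed soil spray onto seeded loam/sand pots. Postemergence: spray onto plants at one- to two-leaf stage, 2–10 cm tall.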

barnyardgrass [1] = assay: Test A pre-/postemergence herbicide test; format: in vivo, Echinochloa crus-galli
Method in brief: as §1

ducksalad [2] = assay: Test C flooded paddy test; format: in vivo, Heteranthera limosa; settings: Flood
Method in brief: (§2)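 Visual injury scored against controls after 13 to 15 days in the greenhouse, using 0 (no effect) to 100 (complete control). Test compounds went straight into paddy water held 3 cm above the soil surface on 2-leaf-stage plants, with that flood depth maintained for the whole test.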

pigweed = assay: Test A pre-/postemergence herbicide test; format: in vivo, Amaranthus retroflexus; settings: for Plant response rating, Pigweed: 125 g ai/ha
Method in brief: as §1

rice [3] = assay: Test B flooded paddy test; format: in vivo, Oryza sativa; settings: 1000 g ai/ha, Flood; scale of 0 to 100 where 0 is no effect and 100 is complete control
Method in brief: (§3)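 In-water application to pots flooded 3 cm deep, plants at 2-leaf stage. Held in greenhouse 13–15 days at constant flood depth. Scored 0–100 by eye against controls.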

blackgrass = assay: Test A postemergence herbicide test; format: in vivo, Alopecurus myosuroides
Method in brief: (§4)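 Injury was rated visually about 10 days after treatment on a 0 (no effect) to 100 (complete control) scale, compared with untreated plants. Test chemicals were sprayed postemergence onto greenhouse plants 2–10 cm high at one to two leaves, grown in a loam–sand blend.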

ragweed = assay: Test A pre-/postemergence herbicide test; format: in vivo, Ambrosia elatior; settings: for Plant response rating, Ragweed: 125 g ai/ha
Method in brief: as §1

ryegrass, Italian = assay: Test A pre-/postemergence herbicide test; format: in vivo, Lolium multiflorum; settings: for Plant response rating, Ryegrass, Italian: 125 g ai/ha
Method in brief: as §1

barnyardgrass [4] = assay: Test B flooded paddy test; format: in vivo, Echinochloa crus-galli; settings: 1000 g ai/ha, Flood; scale of 0 to 100 where 0 is no effect and 100 is complete control
Method in brief: as §3

giant foxtail = assay: Test A pre-/postemergence herbicide test; format: in vivo, Setaria faberii
Method in brief: as §1

wheat = assay: Test A pre-/postemergence herbicide test; format: in vivo, Triticum aestivum; settings: Postemergence, 125 g ai/ha; visual rating on 0 to 100 scale (0 no effect, 100 complete control), approx. 10 days
Method in brief: as §1

sedge, umbrella [5] = assay: Test C flooded paddy test; format: in vivo, Cyperus difformis; settings: Flood
Method in brief: as §2

sedge, umbrella [6] = assay: Test B flooded paddy test; format: in vivo, Cyperus difformis; settings: 1000 g ai/ha, Flood; scale of 0 to 100 where 0 is no effect and 100 is complete control
Method in brief: as §3

corn = assay: Test A pre-/postemergence herbicide test; format: in vivo, Zea mays; settings: Postemergence
Method in brief: as §1

barnyardgrass [7] = assay: Test C flooded paddy test; format: in vivo, Echinochloa crus-galli; settings: Flood
Method in brief: as §2

rice [8] = assay: Test C flooded paddy test; format: in vivo, Oryza sativa; settings: Flood
Method in brief: as §2

galium = assay: Test A postemergence herbicide test; format: in vivo, Galium aparine; settings: 125 g ai/ha, visual rating on 0 to 100 scale (0 no effect, 100 complete control), approx. 10 days
Method in brief: as §4

ducksalad [9] = assay: Test B flooded paddy test; format: in vivo, Heteranthera limosa; settings: 1000 g ai/ha, Flood; scale of 0 to 100 where 0 is no effect and 100 is complete control
Method in brief: as §3

[10] = Postemergence, visual rating on 0 to 100 scale (0 no effect, 100 complete control), approx. 10 days
[11] = Preemergence, 0 to 100 scale where 0 is no effect and 100 is complete control
[12] = Preemergence, 500 g ai/ha, visual rating on 0 to 100 scale (0 no effect, 100 complete control)
[13] = Postemergence, 125 g ai/ha, visual rating on 0 to 100 scale (0 no effect, 100 complete control), approx. 10 days
[14] = Postemergence, 500 g ai/ha, 0 to 100 scale (0 no effect, 100 complete control)
[15] = Preemergence, 125 g ai/ha, 0 to 100 scale where 0 is no effect and 100 is complete control
[16] = 125 g ai/ha, scale of 0 to 100 where 0 is no effect and 100 is complete control, 13 to 15 days
[17] = 250 g ai/ha, scale of 0 to 100 where 0 is no effect and 100 is complete control, 13 to 15 days
[18] = 125 g ai/ha, visual rating on 0 to 100 scale (0 no effect, 100 complete control), approx. 10 days
[19] = 500 g ai/ha, 0 to 100 scale (0 no effect, 100 complete control)

O=C1NCC(c2cccc(C(F)(F)F)c2)C1C(=O)Nc1cccc(Cl)c1F (stereo not shown) [Compound 344]
Plant response rating, Kochia (kochia; [10]): 0
Plant response rating, Kochia (kochia; [11]): 0
Kochia plant response rating (kochia; [12]): 0
Plant response rating, Barnyardgrass (barnyardgrass [1]; [13]): 60
Plant response rating, Barnyardgrass (barnyardgrass [1]; [14]): 90
Plant response rating, Barnyardgrass (barnyardgrass [1]; [15]): 50
Barnyardgrass plant response rating (barnyardgrass [1]; [12]): 90
Plant response rating, Ducksalad (ducksalad [2]; [16]): 50
Plant response rating, Ducksalad (ducksalad [2]; [17]): 60
Plant response rating, Ducksalad (ducksalad [2]; 500 g ai/ha, scale 0 to 100): 65
Plant response rating, Ducksalad (ducksalad [2]; 1000 g ai/ha, scale 0 to 100): 85
Plant response rating, Pigweed (pigweed; [10]): 0
Plant response rating, Pigweed (pigweed; [11]): 0
Pigweed plant response rating (pigweed; [12]): 0
Plant response rating, Rice (rice [3]): 10
Plant response rating, Blackgrass (blackgrass; [18]): 0
Plant response rating, Blackgrass (blackgrass; [19]): 0
Plant response rating, Ragweed (ragweed; [10]): 0
Plant response rating, Ragweed (ragweed; [11]): 0
Ragweed plant response rating (ragweed; [12]): 0
Plant response rating, Ryegrass, Italian (ryegrass, Italian; [10]): 0
Plant response rating, Ryegrass, Italian (ryegrass, Italian; [11]): 0
Ryegrass, Italian plant response rating (ryegrass, Italian; [12]): 30
Plant response rating, Barnyardgrass (barnyardgrass [4]): 85
Plant response rating, Foxtail, Giant (giant foxtail; [13]): 80
Plant response rating, Foxtail, Giant (giant foxtail; [14]): 90
Plant response rating, Foxtail, Giant (giant foxtail; [15]): 80
Foxtail, Giant plant response rating (giant foxtail; [12]): 90
Plant response rating, Wheat (wheat): 0
Plant response rating, Sedge, Umbrella (sedge, umbrella [5]; [16]): 0
Plant response rating, Sedge, Umbrella (sedge, umbrella [5]; [17]): 0
Plant response rating, Sedge, Umbrella (sedge, umbrella [5]; 500 g ai/ha, scale 0 to 100): 0
Plant response rating, Sedge, Umbrella (sedge, umbrella [5]; 1000 g ai/ha, scale 0 to 100): 0
Plant response rating, Sedge, Umbrella (sedge, umbrella [6]): 0
Plant response rating, Corn (corn; [18]): 0
Plant response rating, Corn (corn; [19]): 0
Plant response rating, Barnyardgrass (barnyardgrass [7]; [16]): 0
Plant response rating, Barnyardgrass (barnyardgrass [7]; [17]): 35
Plant response rating, Barnyardgrass (barnyardgrass [7]; 500 g ai/ha, scale 0 to 100): 40
Plant response rating, Barnyardgrass (barnyardgrass [7]; 1000 g ai/ha, scale 0 to 100): 55
Plant response rating, Rice (rice [8]; [16]): 0
Plant response rating, Rice (rice [8]; [17]): 0
Plant response rating, Rice (rice [8]; 500 g ai/ha, scale 0 to 100): 0
Plant response rating, Rice (rice [8]; 1000 g ai/ha, scale 0 to 100): 0
Plant response rating, Galium (galium): 0
Plant response rating, Ducksalad (ducksalad [9]): 90
